Data as given in the supplement of paper PMC10307832.

What was measured:
Experiment in all cases: relative viability (nuclei count vs DMSO), 5 days (fraction); higher = more cells survive
Metformin + Phenformin = compound: CN(C)C(=N)NC(=N)N [Metformin] + N=C(N)NC(=N)NCCc1ccccc1 [Phenformin] (partner 250 µM)
Procedure, shortened: (§1)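 Relative viability was taken as the ratio of nuclei in treated wells to nuclei in vehicle wells. Lung cancer cell lines in 1536-well plates received compounds by pin tool one day after seeding, either one drug alone or a fixed anchor-drug dose plus five library-drug doses (not always all listed) in √10 steps. Nuclei were counted on 4× images after 5 days of treatment, and values are medians of duplicate plates.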

Apatinib + Vorinostat = compound: N#CC1(c2ccc(NC(=O)c3cccnc3NCc3ccncc3)cc2)CCCC1 [Apatinib] + O=C(CCCCCCC(=O)Nc1ccccc1)NO [Vorinostat] (partner 1 µM)
Procedure, shortened: as §1

Metformin + Trametinib = compound: CN(C)C(=N)NC(=N)N [Metformin] + CC(=O)Nc1cccc(-n2c(=O)n(C3CC3)c(=O)c3c(Nc4ccc(I)cc4F)n(C)c(=O)c(C)c32)c1 [Trametinib] (partner 0.02 µM)
Procedure, shortened: as §1

Metformin + Alpelisib = compound: CN(C)C(=N)NC(=N)N [Metformin] + Cc1nc(NC(=O)N2CCC[C@H]2C(N)=O)sc1-c1ccnc(C(C)(C)C(F)(F)F)c1 [Alpelisib] (partner 2 µM)
Procedure, shortened: as §1

Cell Line	relative viability (Metformin + Phenformin; first compound 10 µM)	relative viability (Metformin + Phenformin; first compound 31.62 µM)	relative viability (Metformin + Phenformin; first compound 100 µM)	relative viability (Metformin + Phenformin; first compound 316.23 µM)	relative viability (Metformin + Phenformin; first compound 1000 µM)	relative viability (Apatinib + Vorinostat; first compound 0.08 µM)	relative viability (Apatinib + Vorinostat; first compound 0.253 µM)	relative viability (Apatinib + Vorinostat; first compound 0.8 µM)	relative viability (Apatinib + Vorinostat; first compound 2.53 µM)	relative viability (Apatinib + Vorinostat; first compound 8 µM)	relative viability (Metformin + Trametinib; first compound 10 µM)	relative viability (Metformin + Trametinib; first compound 31.62 µM)	relative viability (Metformin + Trametinib; first compound 100 µM)	relative viability (Metformin + Trametinib; first compound 316.23 µM)	relative viability (Metformin + Trametinib; first compound 1000 µM)	relative viability (Metformin + Alpelisib; first compound 10 µM)	relative viability (Metformin + Alpelisib; first compound 31.62 µM)	relative viability (Metformin + Alpelisib; first compound 100 µM)	relative viability (Metformin + Alpelisib; first compound 316.23 µM)	relative viability (Metformin + Alpelisib; first compound 1000 µM)
NCI-H647	0.614	0.58	0.62	0.521	0.653	0.596	0.868	0.473	0.669	0.343	0.479	0.598	0.498	0.482	0.556	1.07	1.05	1.08	1.15	1.21
NCI-H661	0.284	0.262	0.264	0.267	0.267	0.814	0.75	0.739	0.722	0.716	0.54	0.643	0.575	0.527	0.586	0.745	0.404	0.711	0.757	0.774
HCC-366	0.403	0.679	0.616	0.644	0.734	0.437	0.386	0.329	0.205	0.193	0.301	0.289	0.23	0.279	0.314	0.43	0.545	0.472	0.452	0.535
HOP-62	0.486	0.577	0.527	0.478	0.593	0.613	0.679	0.567	0.476	0.323	0.409	0.497	0.427	0.364	0.485	0.828	0.77	0.777	0.928	0.934
A549	0.0727	0.111	0.127	0.124	0.154											0.766	0.879	0.739	0.672	0.611
HCC-827		0.412	0.376	0.365	0.373	0.859	0.777	0.817	0.654	0.855	0.575	0.567	0.616	0.577	0.605		0.822	0.896	0.837	0.782
NCI-H1395	0.448	0.429	0.525	0.423	0.467	0.772	0.815	0.64	0.535	0.605	0.945	1.05	0.896	0.974	0.756	0.835	1.02	1.1	0.424	0.342
SK-MES-1	0.504	0.534	0.545	0.495	0.512	1.18	1.14	1.04	0.961	0.928	0.564	0.574	0.595	0.57	0.616	0.814	0.802	0.732	0.822	0.909
NCI-H2023	0.396	0.376	0.408	0.393	0.354	0.774	0.673	0.811	0.58	0.483	0.5	0.563	0.516	0.415	0.467		0.558	0.627		0.506
NCI-H1299																0.991	0.998	1.05	0.994	0.933
LCLC-97TM1	0.478	0.43	0.332	0.398	0.477	0.911	0.758	0.695	0.577	0.337		0.207	0.247	0.174	0.229	0.285	0.284	0.339	0.252	0.346
NCI-H1993	0.479	0.481	0.514	0.532	0.499	0.804	0.726	0.948	0.788	0.727	0.477	0.634	0.497	0.425	0.611	0.634	0.67	0.643	0.62	0.705
PC-3 [JPC-3]	0.437	0.46	0.462	0.45	0.478		0.756	0.733	0.533	0.799	0.683	0.717		0.706	0.68	0.92	0.971	1.03	0.949	0.965
NCI-H441		0.707	0.706	0.586	0.803	0.891	0.673	0.827	0.809	0.574		0.575	0.573	0.442	0.639	0.566		0.765		0.572
NCI-H322M	0.839	0.802	0.809	0.735	0.746	0.846	0.846	0.885	0.897	0.885	0.518	0.487	0.506	0.561	0.529	0.83	0.901	0.845	0.787	0.779
NCI-H1651	0.42	0.312	0.371	0.327	0.373	0.583	0.522	0.528	0.48	0.577	0.908	0.999	1.01	0.903	1	1.21	1.13	1.14	1.08	1.15
EKVX	0.23	0.253	0.239		0.189	0.816	0.752	0.713	0.589	0.57		0.196	0.354	0.265	0.334	0.656	0.934	0.88	0.812	0.835
CAL-12T	0.635	0.61	0.634	0.555	0.604	0.941	1.02	0.741	0.794	0.765	0.357	0.443	0.404	0.432	0.452		1.21	1.08	0.812	0.907
NCI-H358	0.351	0.237	0.217	0.309	0.328	0.762	0.866	0.616	0.618	0.578	0.12	0.128	0.139	0.137	0.157	1.1	0.911	1.07	0.915	1.25
PC-14	0.72	0.808	0.77	0.659	0.697	0.821	0.755	0.639	0.606	0.547	0.746	0.666	0.767	0.686	0.575	0.829	0.886	0.873	0.975	0.893
NCI-H650	0.446	0.509	0.357	0.436	0.494	0.494	0.422	0.391	0.264	0.42	1.09	1	1.06	0.817	0.94	1.22	1.29	1.33	1.23	1.37

Cell Line	relative viability (Metformin + Phenformin; first compound 10 µM)	relative viability (Metformin + Phenformin; first compound 31.62 µM)	relative viability (Metformin + Phenformin; first compound 100 µM)	relative viability (Metformin + Phenformin; first compound 316.23 µM)	relative viability (Metformin + Phenformin; first compound 1000 µM)	relative viability (Apatinib + Vorinostat; first compound 0.08 µM)	relative viability (Apatinib + Vorinostat; first compound 0.253 µM)	relative viability (Apatinib + Vorinostat; first compound 0.8 µM)	relative viability (Apatinib + Vorinostat; first compound 2.53 µM)	relative viability (Apatinib + Vorinostat; first compound 8 µM)	relative viability (Metformin + Trametinib; first compound 10 µM)	relative viability (Metformin + Trametinib; first compound 31.62 µM)	relative viability (Metformin + Trametinib; first compound 100 µM)	relative viability (Metformin + Trametinib; first compound 316.23 µM)	relative viability (Metformin + Trametinib; first compound 1000 µM)	relative viability (Metformin + Alpelisib; first compound 10 µM)	relative viability (Metformin + Alpelisib; first compound 31.62 µM)	relative viability (Metformin + Alpelisib; first compound 100 µM)	relative viability (Metformin + Alpelisib; first compound 316.23 µM)	relative viability (Metformin + Alpelisib; first compound 1000 µM)
NCI-H2405	0.379	0.362	0.362	0.393	0.326	1.21	1.15	1.06	0.951	1.03		0.744	0.635	0.688	0.555	0.873	0.971	0.852	0.453	0.373
NCI-H2228	0.27	0.213	0.372	0.275	0.322	0.535	0.703	0.538	0.55	0.639	0.699	0.681	0.398	0.434	0.553	0.917	0.85		0.542	0.898
H3255	0.395	0.365	0.436	0.338	0.382	0.768	0.737	0.764	0.74	0.794	0.587	0.789	0.648	0.57	0.508	0.697	0.783	0.712	0.339	0.486
EBC-1																0.866	0.989	0.925	0.941	0.947
NCI-H520	1.08	0.892	0.603	0.658	0.78	0.77	0.736	0.708	0.672	0.452	0.798	0.622	0.739	0.505	0.762	0.764	0.855	0.948	0.665	0.86
SK-LU-1	0.608	0.532	0.501	0.424	0.54	0.905	0.778	0.776	0.722	0.554	0.452	0.453	0.458	0.382	0.442	0.916	0.934	0.829	0.948	1.07
NCI-H1648						0.682	0.503	0.403	0.54	0.276		0.553	0.68	0.53	0.73					
NCI-H1755	0.543	0.626	0.639	0.613	0.632	0.846	0.7	0.783	0.705	0.586	0.683	0.626	0.656	0.682	0.676	0.767	0.826	0.796	0.724	0.798
NCI-H522	0.716	0.649	0.713	0.584	0.712	1.02	1.02	0.875	0.672	0.816	1.07	0.749	0.725	0.899	1.21					
NCI-H1650	0.7	0.548	0.593	0.458	0.476	0.564	0.559	0.513	0.412	0.489	0.597	0.602	0.718	0.474	0.458					
NCI-H1792	0.412	0.442	0.396	0.462	0.383						0.566	0.483	0.567	0.431	0.433		0.798	0.979	0.691	0.869
Calu-6																0.889	0.84	0.836	0.73	0.879
SW 900	0.805	0.736	0.665	0.539	0.862	0.577	0.586	0.482	0.355	0.454	1.09	1.07		0.825	1.2					
NCI-H1703																0.491	0.728	0.474	0.512	0.368
NCI-H2342	0.59	0.47	0.494	0.51	0.572	0.625	0.655	0.763	0.685	0.72		0.773	0.9	0.823	0.801					
NCI-H1623	0.556	0.553	0.569	0.577	0.371															
ABC-1	0.292	0.244	0.251	0.202	0.19		1.2	1.07	1.04	1.22							1.08	0.999	0.745	0.349
NCI-H1563	0.704	0.702	0.647	0.663	0.56											1.06	0.914	1.06	0.827	0.72
ChaGo-K-1	0.539	0.498	0.488	0.489	0.557	0.838	0.843	0.789	0.656	0.565	0.923	0.895	0.909	0.729	0.902					
IA-LM						0.975	0.968	0.958	0.765	0.92							1.11	0.906	0.882	0.88
